Laboratory results: ChEMBL document CHEMBL5154826, “Discovery of the Clinical Candidate MAK683: An EED-Directed, Allosteric, and Selective PRC2 Inhibitor for the Treatment of Advanced Malignancies” (J Med Chem, 2022)
Converted amounts (≈) assume the structure as drawn.

Tests used:
[1] = In vivo inhibition of PRC2 in PBMC collected from human Karpas-422 cells xenografted Athymic NTac:NIH-Whn nude rat assessed as reduction in H3K27me3 level at 0.3 mg/kg, po, qd for 52 days measured after 4 hrs of last dose by FACS method; assay type: functional; parameters: scale not given: the % may be the effect or the level left; conditions: time 52 day
[2] = Plasma clearance in rat; assay type: ADME, cell-free
[3] = Permeability across apical to basolateral side in human Caco-2 cells at 10 uM incubated for 2 hrs by LC/MS/MS analysis; assay type: ADME, cell-based; conditions: caco-2, 2 h, 10 µM
[4] = Dose normalized AUC in wild type Beagle dog at 2 mg/kg, po or 1 mg/kg, iv after 1 week by LC-MS/MS analysis; assay type: ADME, organism-based, Canis lupus familiaris; conditions: in vivo, 168 h, time 1 weeks
[5] = Plasma clearance in human assessed as hepatic extraction; assay type: ADME, cell-free
[6] = Intrinsic clearance in rat hepatocytes measured per 10^6 cells; assay type: ADME, cell-based, Hepatocyte; conditions: read-out: CLH
[7] = biological target: Voltage-gated inwardly rectifying potassium channel KCNH2 (Homo sapiens, UniProt Q12809); assay: Inhibition of hERG potassium channel in HEK293 cells by Q-patch clamp assay; assay type: toxicity, cell-based
Voltage-gated inwardly rectifying potassium channel KCNH2, sequence (Q12809 whole entry): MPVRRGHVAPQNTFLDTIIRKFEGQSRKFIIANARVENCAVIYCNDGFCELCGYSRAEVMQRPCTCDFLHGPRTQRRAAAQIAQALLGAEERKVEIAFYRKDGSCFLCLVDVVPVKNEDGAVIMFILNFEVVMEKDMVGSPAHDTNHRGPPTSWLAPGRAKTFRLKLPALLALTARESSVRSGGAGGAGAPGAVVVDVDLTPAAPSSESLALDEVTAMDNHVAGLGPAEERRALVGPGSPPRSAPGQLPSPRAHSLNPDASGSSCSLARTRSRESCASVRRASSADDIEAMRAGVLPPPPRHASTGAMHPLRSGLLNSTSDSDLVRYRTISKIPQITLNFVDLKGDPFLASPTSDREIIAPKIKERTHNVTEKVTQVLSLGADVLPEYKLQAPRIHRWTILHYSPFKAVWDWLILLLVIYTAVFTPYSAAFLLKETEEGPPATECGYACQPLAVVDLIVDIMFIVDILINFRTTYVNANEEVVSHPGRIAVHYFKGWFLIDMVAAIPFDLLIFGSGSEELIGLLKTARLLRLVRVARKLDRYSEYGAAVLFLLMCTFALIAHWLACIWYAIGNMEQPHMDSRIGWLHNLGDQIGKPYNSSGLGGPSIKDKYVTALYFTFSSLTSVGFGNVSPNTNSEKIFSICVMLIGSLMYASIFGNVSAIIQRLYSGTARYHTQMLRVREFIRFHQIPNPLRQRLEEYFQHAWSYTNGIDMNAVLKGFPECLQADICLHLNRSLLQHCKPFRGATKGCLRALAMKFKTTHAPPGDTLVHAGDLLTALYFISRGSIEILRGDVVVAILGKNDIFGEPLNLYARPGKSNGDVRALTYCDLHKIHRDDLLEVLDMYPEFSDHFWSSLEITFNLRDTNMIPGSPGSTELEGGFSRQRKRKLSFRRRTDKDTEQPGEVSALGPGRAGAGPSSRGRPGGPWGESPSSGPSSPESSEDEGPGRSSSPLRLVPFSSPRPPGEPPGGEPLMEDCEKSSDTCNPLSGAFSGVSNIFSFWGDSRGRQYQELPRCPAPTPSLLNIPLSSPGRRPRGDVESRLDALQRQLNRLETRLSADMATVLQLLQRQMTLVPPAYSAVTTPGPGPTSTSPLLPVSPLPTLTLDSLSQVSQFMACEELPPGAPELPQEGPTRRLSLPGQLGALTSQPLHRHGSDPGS

[8] = Drug metabolism in bile duct cannulated Wistar Han rat assessed as parent compound recovery in bile at 3 mg/kg, iv after 8 hrs by LC-MS/MS analysis; assay type: ADME, organism-based; conditions: read-out: Drug metabolism
[9] = Ratio of drug level in human blood to plasma; assay type: ADME, cell-free; conditions: whole blood
[10] = Permeability across basolateral to apical side in human Caco-2 cells incubated for 2 hrs by LC/MS/MS analysis; assay type: ADME, cell-based; conditions: read-out: permeability
[11] = Oral biovailability in Beagle dog at 2 mg/kg, po; assay type: ADME, organism-based, Canis lupus familiaris; conditions: in vivo
[12] = Plasma protein binding in human at 1 uM measured after 6 hrs LC-MS/MS analysis; assay type: ADME, cell-free; conditions: read-out: PPB (converted)
Cytochrome P450 3A5 = Cytochrome P450 3A5 (Homo sapiens, UniProt P20815); assay: Inhibition of CYP3A5 in human liver microsomes by LC-MS/MS analysis; assay type: ADME, Microsome
Cytochrome P450 3A5, sequence (P20815 whole entry): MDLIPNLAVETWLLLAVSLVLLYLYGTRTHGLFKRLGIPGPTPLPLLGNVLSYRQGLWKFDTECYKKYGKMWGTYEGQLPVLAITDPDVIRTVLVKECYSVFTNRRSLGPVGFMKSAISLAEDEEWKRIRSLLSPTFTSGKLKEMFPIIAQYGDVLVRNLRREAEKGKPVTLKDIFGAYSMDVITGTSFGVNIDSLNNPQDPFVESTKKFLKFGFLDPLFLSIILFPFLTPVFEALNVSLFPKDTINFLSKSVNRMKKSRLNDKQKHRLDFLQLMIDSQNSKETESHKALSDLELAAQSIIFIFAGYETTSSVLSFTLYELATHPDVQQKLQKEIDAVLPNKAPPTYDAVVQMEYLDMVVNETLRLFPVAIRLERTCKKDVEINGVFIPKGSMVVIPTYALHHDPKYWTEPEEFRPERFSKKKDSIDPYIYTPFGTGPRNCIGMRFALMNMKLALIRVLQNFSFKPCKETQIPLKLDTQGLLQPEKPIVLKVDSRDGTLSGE

[13] = Ratio of drug level in rat blood to plasma; assay type: ADME, cell-free
[14] = Toxicity in Athymic NTac:NIH-Whn nude rat xenografted with human Karpas-422 cells assessed as reduction in body weight at 0.3 to 30 mg/kg, po, qd measured upto 140 days; assay type: organism-based; conditions: in vivo, 3360 h, dose 0.3-30 mg/kg, time < 140 day
[15] = High throughput solubility of the compound at pH 4 after 16 to 24 hrs by MS/MS analysis; assay type: physicochemical; conditions: buffer, time 16-24 hrs
[16] = Volume of distribution at steady state in wild type Beagle dog at 2 mg/kg, po or 1 mg/kg, iv after 1 week by LC-MS/MS analysis; assay type: ADME, organism-based, Canis lupus familiaris; conditions: in vivo, 168 h, time 1 weeks
[17] = Inhibition of PRC2 (unknown origin) assessed as reduction in H3K27 trimethylation using H3K27Me0 peptide (21 to 44 residues) as substrate by measuring SAH formation by LC-MS analysis; parameters: species or system Homo sapiens
[18] = Drug metabolism in bile duct cannulated Wistar Han rat assessed as parent compound recovery in urine at 3 mg/kg, iv after 8 hrs by LC-MS/MS analysis; assay type: ADME, organism-based; conditions: read-out: Drug metabolism
cells = conditions: Homo sapiens, G-401, 48 h
Description: Inhibition of PRC2 in human G-401 cells assessed as H3K27 methylation status incubated for 48 hrs by ELISA method

[19] = Plasma protein binding in human assessed as unbound fraction at 1 uM measured after 6 hrs LC-MS/MS analysis; assay type: ADME, cell-free
[20] = Reduction of H3K27me3 level in human Karpas-422 cells xenografted Athymic BALB/c nude mouse tumor assessed at 10 mg/kg, po twice a day for 21 days; assay type: functional; parameters: scale not given: the % may be the effect or the level left; conditions: time 21 day
Cytochrome P450 2D6 [21] = biological target: T1, Cytochrome P450 2D6 (Homo sapiens, UniProt P10635); assay: Inhibition of CYP2D6 in human liver microsomes using bufuralol as substrate incubated for 10 mins in presence of NADPH by LC-MS/MS analysis; assay type: ADME, Microsome
T1 sequence (P10635 whole entry): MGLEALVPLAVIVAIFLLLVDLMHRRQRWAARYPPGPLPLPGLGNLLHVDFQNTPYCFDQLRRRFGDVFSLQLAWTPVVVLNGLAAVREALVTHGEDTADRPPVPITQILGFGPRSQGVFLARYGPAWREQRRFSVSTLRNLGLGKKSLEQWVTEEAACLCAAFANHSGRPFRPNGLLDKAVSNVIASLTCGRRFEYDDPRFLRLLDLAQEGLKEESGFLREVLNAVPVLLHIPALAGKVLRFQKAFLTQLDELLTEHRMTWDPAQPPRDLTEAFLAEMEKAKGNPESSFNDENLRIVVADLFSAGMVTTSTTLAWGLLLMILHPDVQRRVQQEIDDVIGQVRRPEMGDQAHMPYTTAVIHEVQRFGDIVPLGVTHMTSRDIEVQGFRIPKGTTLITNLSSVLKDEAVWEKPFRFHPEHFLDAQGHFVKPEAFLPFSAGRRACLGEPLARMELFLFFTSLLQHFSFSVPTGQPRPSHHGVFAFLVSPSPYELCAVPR

[22] = Intrinsic clearance in human hepatocytes measured per 10^6 cells; assay type: ADME, cell-based, Hepatocyte; conditions: read-out: CLH
[23] = Terminal half life in wild type Beagle dog at 2 mg/kg, po or 1 mg/kg, iv after 1 week by LC-MS/MS analysis; assay type: ADME, organism-based, Canis lupus familiaris; conditions: in vivo, time 1 weeks, read-out: beta t1/2 (converted)
Cytochrome P450 2C9 = Cytochrome P450 2C9 (Homo sapiens, UniProt P11712); assay: Inhibition of CYP2C9 human liver microsomes using diclofenac as substrate incubated for 15 mins by LC-MS/MS analysis; assay type: ADME, Microsome
Cytochrome P450 2C9, sequence (P11712 whole entry): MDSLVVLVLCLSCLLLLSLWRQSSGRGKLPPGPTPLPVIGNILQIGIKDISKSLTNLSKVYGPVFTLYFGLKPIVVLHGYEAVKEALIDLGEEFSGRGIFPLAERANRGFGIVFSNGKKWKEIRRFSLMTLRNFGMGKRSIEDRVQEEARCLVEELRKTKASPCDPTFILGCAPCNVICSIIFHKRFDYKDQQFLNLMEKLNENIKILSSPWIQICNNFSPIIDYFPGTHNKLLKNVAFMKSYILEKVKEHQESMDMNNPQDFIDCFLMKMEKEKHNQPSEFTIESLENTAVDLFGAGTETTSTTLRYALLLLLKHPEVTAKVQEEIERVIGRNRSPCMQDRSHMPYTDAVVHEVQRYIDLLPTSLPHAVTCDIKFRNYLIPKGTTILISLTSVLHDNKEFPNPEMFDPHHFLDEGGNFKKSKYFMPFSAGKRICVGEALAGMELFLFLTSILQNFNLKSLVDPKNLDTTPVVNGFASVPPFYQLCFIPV

[24] = Drugmetabolism in dog hepatocytes assessed as CYP3A4 mediated metabolite formation; assay type: ADME, cell-based, Canis lupus familiaris, Hepatocyte
[25] = Lipophilicity, logD of the compound at pH 7.4 by LC with tandem MS analysis; assay type: physicochemical; conditions: buffer
KARPAS-422 = assay: Antiproliferative activity against human KARPAS-422 cells expressing EZH2 mutant assessed as inhibition of cell growth after 14 days by beckman coulter counting method; assay type: functional; conditions: time 14 day
[26] = Drugmetabolism in human hepatocytes assessed as metabolite formation; assay type: ADME, cell-based, Hepatocyte
[27] = Plasma protein binding in rat at 1 uM measured after 6 hrs LC-MS/MS analysis; assay type: ADME, cell-free; conditions: read-out: PPB (converted)
[28] = Metabolic stability in rat microsomes assessed as intrinsic clearance; assay type: ADME, Microsome; conditions: read-out: CLH
[29] = In vivo inhibition of PRC2 in PBMC collected from human Karpas-422 cells xenografted Athymic NTac:NIH-Whn nude rat assessed as reduction in H3K27me3 level at 10 mg/kg, po, qd for 42 days measured after 4 hrs of last dose by FACS method; assay type: functional; parameters: scale not given: the % may be the effect or the level left; conditions: time 42 day
[30] = Dose normalized Cmax in wild type Beagle dog at 2 mg/kg, po or 1 mg/kg, iv after 1 week by LC-MS/MS analysis; assay type: ADME, organism-based, Canis lupus familiaris; conditions: in vivo, 168 h, time 1 weeks
[31] = Plasma clearance in mouse assessed as hepatic extraction; assay type: ADME, cell-free; conditions: read-out: ERH
Cytochrome P450 2D6 [32] = biological target: T1, Cytochrome P450 2D6; assay: Inhibition of CYP2D6 human liver microsomes using bufuralol as substrate incubated for 15 mins by LC-MS/MS analysis; assay type: ADME, Microsome
[33] = Oral biovailability in ICR (CD-1) mouse at 2 mg/kg, po; assay type: ADME, organism-based; conditions: in vivo
Cytochrome P450 3A4 = Cytochrome P450 3A4 (Homo sapiens, UniProt P08684); assay: Inhibition of CYP3A4 in human liver microsomes using midazolam as substrate incubated for 10 mins by LC-MS/MS analysis; assay type: ADME, Microsome
Cytochrome P450 3A4, sequence (P08684 whole entry): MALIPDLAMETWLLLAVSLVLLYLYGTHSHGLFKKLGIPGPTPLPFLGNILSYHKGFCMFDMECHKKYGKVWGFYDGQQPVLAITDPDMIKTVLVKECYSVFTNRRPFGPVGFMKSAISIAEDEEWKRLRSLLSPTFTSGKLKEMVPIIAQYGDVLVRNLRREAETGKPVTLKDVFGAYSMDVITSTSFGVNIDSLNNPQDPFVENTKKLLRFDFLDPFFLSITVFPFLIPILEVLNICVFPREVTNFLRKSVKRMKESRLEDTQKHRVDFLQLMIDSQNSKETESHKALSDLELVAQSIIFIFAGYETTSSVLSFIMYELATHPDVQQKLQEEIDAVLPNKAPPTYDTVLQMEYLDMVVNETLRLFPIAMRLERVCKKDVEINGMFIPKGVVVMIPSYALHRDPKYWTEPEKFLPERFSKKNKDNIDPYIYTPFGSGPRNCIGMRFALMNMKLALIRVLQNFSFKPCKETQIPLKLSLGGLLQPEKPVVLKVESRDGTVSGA

[34] = Toxicity in Athymic BALB/c nude mouse xenografted with human Karpas-422 cells assessed as tolerability by measuring body weight at 10 to 300 mg/kg, po twice a day for 30 days; assay type: organism-based; conditions: in vivo, 720 h, dose 10-300 mg/kg, time 30 day
[35] = Dose normalized AUC in ICR (CD-1) mouse at 2 mg/kg, po or 1 mg/kg, iv after 1 week by LC-MS/MS analysis; assay type: ADME, organism-based; conditions: in vivo, 168 h, time 1 weeks
[36] = High throughput solubility of the compound in FeSSIF after 16 to 24 hrs by MS/MS analysis; assay type: physicochemical; conditions: time 16-24 hrs
[37] = Mutagenecity in Salmonella typhimurium TA98 by Ames test; assay type: toxicity; conditions: salmonella enterica subsp. enterica serovar typhimurium
[38] = Plasma protein binding in dog at 1 uM measured after 6 hrs LC-MS/MS analysis; assay type: ADME, cell-free, Canis lupus familiaris; conditions: read-out: PPB (converted)

Cc1ncccc1-c1cnc(NCc2c(F)ccc3c2CCO3)n2cnnc12
Activity [1]: 20% | clearance [2]: 10 mL/min/kg | permeability [3]: 2.8 10^-6 cm/s | AUC/dose [4]: 2093 nM·h | CLH [5]: 1.6 mL/min/kg | hepatocyte CLint [6]: 12 µL/min/1e6 cells | IC50 [7]: > 30 µM | dose excreted at 8 h [8]: 0.3% | blood plasma ratio [9]: 0.78 | Papp B→A at 2 h [10]: 37 ×10⁻⁶ cm/s | bioavailability [11]: 73% | fraction unbound at 6 h, 1 µM [12]: 0.08 | IC50 (Cytochrome P450 3A5): > 18 µM | blood plasma ratio [13]: 0.98 | Activity [14]: Non-Toxic | solubility [15]: 266 µM (≈ 100 µg/mL) | Vdss [16]: 1 L/kg | IC50 [17]: 9 µM | dose excreted at 8 h [18]: 0.5% | IC50 (cells): 3 µM | fraction unbound at 6 h, 1 µM [19]: 0.08 | Activity [20]: >50% | IC50 (Cytochrome P450 2D6 [21]): > 20 µM | hepatocyte CLint [22]: 4.4 µL/min/1e6 cells | half-life [23]: 1.2 h | IC50 (Cytochrome P450 2C9): > 18 µM | Drug metabolism [24]: Metabolite_Detected | logD [25]: 3.88 | GI50 (KARPAS-422; Homo sapiens, KARPAS-422, 336 h): 4 µM | GI90 (KARPAS-422): 8 µM | Drug metabolism [26]: Metabolite_Notdetected | fraction unbound at 6 h, 1 µM [27]: 0.13 | microsomal CLint [28]: 22 µL/min/mg | Activity [29]: 97% | Cmax/dose [30]: 400 nM | hepatic extraction ratio [31]: 0.42 | IC50 (Cytochrome P450 2D6 [32]): > 18 µM | bioavailability [33]: 77% | IC50 (Cytochrome P450 3A4): > 18 µM | Activity [34]: Non-Toxic | AUC/dose [35]: 884 nM·h | solubility [36]: 57 µM (≈ 21.5 µg/mL) | Activity [37]: Non-Toxic | fraction unbound at 6 h, 1 µM [38]: 0.09
